Results from patent US10869871B2, “Compositions and methods of modulating short-chain dehydrogenase activity” (CASE WESTERN RESERVE UNIVERSITY, priority 2013, dated 2020).

Experiments:
[1] = test system: A549 cells; test: PGE2 levels in medium of IL1-beta stimulated A549 cells; type: cell-based
[2] = test system: bone marrow; test: Bone marrow analysis of C57BL/6J mice treated IP; type: in vivo, mouse; conditions: IP 5 mg/kg or 20 mg/kg
Text: FIGS. […] Experimental conditions are noted on the figure.

[3] = Survival after acetaminophen (Tylenol) LD50 dose 600 mg/kg IP; type: in vivo, mouse; conditions: for number of mice surviving: first dose immediately after Tylenol injection;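 on all read-outs here: controls were mice given only vehicle, dosed once or twice per day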

CCCC[S+]([O-])c1sc2nc(-c3cccs3)cc(-c3ccccc3)c2c1N (stereo not drawn) [SW033291, 2-(butylsulfinyl)-4-phenyl-6-(thiophen-2-yl)thieno[2,3-b]pyridin-3-amine]
12: Survival (number of mice) ([3]; 5 mg/kg IP bid from 48 hours prior to acetaminophen, 9 doses, cohort of 12, 0 hrs) | Survival (number of mice) ([3]; 5 mg/kg IP bid from 48 hours prior to acetaminophen, 9 doses, cohort of 12, 16 hr) | Survival (number of mice) ([3]; 5 mg/kg IP bid from 48 hours prior to acetaminophen, 9 doses, cohort of 12, 24 hrs)
next highest level of PGE2: rank of PGE2 level in medium ([1]; 100 nM concentration of drug)
clear inhibition of 15-PGDH activity: PGE2 level in medium, reflecting 15-PGDH activity ([1]; IL1-beta 23 hours, compound added for last 5 hours)
unchanged: percent of Sca1+/c-Kit+ lineage negative (SKL) cells [2]
5: Survival (number of mice) ([3]; 5 mg/kg IP bid from 3 hours prior to acetaminophen, 6 doses, cohort of 6, 24 hrs)
6: Survival (number of mice) ([3]; 5 mg/kg IP bid from 3 hours prior to acetaminophen, 6 doses, cohort of 6, 0 hrs) | Survival (number of mice) ([3]; 5 mg/kg IP bid from 3 hours prior to acetaminophen, 6 doses, cohort of 6, 16 hr) | number of mice surviving ([3]; 1 dose daily, cohort of 6, 0 hrs) | number of mice surviving ([3]; 1 dose daily, cohort of 6, 16 hr) | number of mice surviving ([3]; 1 dose daily, cohort of 6, 24 hrs) | number of mice surviving ([3]; 2 dose daily, cohort of 6, 0 hrs) | number of mice surviving ([3]; 2 dose daily, cohort of 6, 16 hr) | number of mice surviving ([3]; 2 dose daily, cohort of 6, 24 hrs)
11: Survival (number of mice) ([3]; 5 mg/kg IP bid from 48 hours prior to acetaminophen, 9 doses, cohort of 12, 40 hrs)
10: Survival (number of mice) ([3]; 5 mg/kg IP bid from 48 hours prior to acetaminophen, 9 doses, cohort of 12, 48 hrs) | Survival (number of mice) ([3]; 5 mg/kg IP bid from 48 hours prior to acetaminophen, 9 doses, cohort of 12, 64 hrs) | Survival (number of mice) ([3]; 5 mg/kg IP bid from 48 hours prior to acetaminophen, 9 doses, cohort of 12, 72 hrs) | Survival (number of mice) ([3]; 5 mg/kg IP bid from 48 hours prior to acetaminophen, 9 doses, cohort of 12, 88 hr) | Survival (number of mice) ([3]; 5 mg/kg IP bid from 48 hours prior to acetaminophen, 9 doses, cohort of 12, 96 hr) | Survival (number of mice) ([3]; 5 mg/kg IP bid from 48 hours prior to acetaminophen, 9 doses, cohort of 12, 112 hr) | Survival (number of mice) ([3]; 5 mg/kg IP bid from 48 hours prior to acetaminophen, 9 doses, cohort of 12, 120 hr)
3: Survival (number of mice) ([3]; 5 mg/kg IP bid from 3 hours prior to acetaminophen, 6 doses, cohort of 6, 48 hrs) | Survival (number of mice) ([3]; 5 mg/kg IP bid from 3 hours prior to acetaminophen, 6 doses, cohort of 6, 64 hrs) | Survival (number of mice) ([3]; 5 mg/kg IP bid from 3 hours prior to acetaminophen, 6 doses, cohort of 6, 72 hrs) | Survival (number of mice) ([3]; 5 mg/kg IP bid from 3 hours prior to acetaminophen, 6 doses, cohort of 6, 88 hr) | Survival (number of mice) ([3]; 5 mg/kg IP bid from 3 hours prior to acetaminophen, 6 doses, cohort of 6, 96 hr) | Survival (number of mice) ([3]; 5 mg/kg IP bid from 3 hours prior to acetaminophen, 6 doses, cohort of 6, 112 hr) | Survival (number of mice) ([3]; 5 mg/kg IP bid from 3 hours prior to acetaminophen, 6 doses, cohort of 6, 120 hr) | number of mice surviving ([3]; 2 dose daily, cohort of 6, 48 hrs) | number of mice surviving ([3]; 2 dose daily, cohort of 6, 64 hrs) | number of mice surviving ([3]; 2 dose daily, cohort of 6, 72 hrs) | number of mice surviving ([3]; 2 dose daily, cohort of 6, 88 hr) | number of mice surviving ([3]; 2 dose daily, cohort of 6, 96 hr) | number of mice surviving ([3]; 2 dose daily, cohort of 6, 112 hr) | number of mice surviving ([3]; 2 dose daily, cohort of 6, 120 hr)
No difference: survival versus control ([3]; 5 mg/kg IP beginning immediately following acetaminophen, once or twice daily, through 120 hours)
3000 pg/mL: highest PGE2 level achieved in medium ([1]; IL-1β 16 h, compound 8 h)
